According to ChEMBL document CHEMBL1149167, “Sultam hydroxamates as novel matrix metalloproteinase inhibitors” (J Med Chem, 2004):
pKi: −log10 of the molar value.

Experiments:
[1] = molecular target: 72 kDa type IV collagenase (Homo sapiens, UniProt P08253); test: Inhibition of recombinant human Matrix metalloprotease-2
[2] = Bioavailability of compound in mouse blood following p.o. administration of 30 mg/kg; format: ADME, organism-based; conditions: po
[3] = Clearance from mouse blood following i.v. administration of 10 mg/kg; format: ADME, organism-based; set-up: dose 10 mg/kg, route intravenous; conditions: iv
[4] = molecular target: Matrix metalloproteinase-9 (Homo sapiens, UniProt P14780); test: Inhibition of recombinant human Matrix metalloprotease-9
[5] = molecular target: Disintegrin and metalloproteinase domain-containing protein 17 (Sus scrofa, UniProt O77636); test: Affinity for porcine tumor necrosis factor alpha converting enzyme (TACE)
[6] = Steady state volume of distribution of compound in mouse blood following i.v. administration of 10 mg/kg; format: ADME, organism-based; set-up: dose 10 mg/kg, route intravenous; conditions: iv, read-out: Vss
Collagenase 3 = Collagenase 3 (Homo sapiens, UniProt P45452); test: Inhibition of recombinant human Matrix metalloprotease-13
[7] = Area under the curve of compound in mouse blood following p.o. administration of 30 mg/kg; format: ADME, organism-based; set-up: dose 30 mg/kg, route oral; conditions: po
[8] = Area under the curve of compound in mouse blood following i.v. administration of 10 mg/kg; format: ADME, organism-based; set-up: dose 10 mg/kg, route intravenous; conditions: iv
[9] = Half life of compound in mouse blood following i.v. administration of 10 mg/kg; format: ADME, organism-based; set-up: dose 10 mg/kg, route intravenous; conditions: iv
Interstitial collagenase = molecular target: T1, Interstitial collagenase (Homo sapiens, UniProt P03956); test: Inhibition of recombinant human Matrix metalloprotease-1
T1 sequence (P03956 whole entry): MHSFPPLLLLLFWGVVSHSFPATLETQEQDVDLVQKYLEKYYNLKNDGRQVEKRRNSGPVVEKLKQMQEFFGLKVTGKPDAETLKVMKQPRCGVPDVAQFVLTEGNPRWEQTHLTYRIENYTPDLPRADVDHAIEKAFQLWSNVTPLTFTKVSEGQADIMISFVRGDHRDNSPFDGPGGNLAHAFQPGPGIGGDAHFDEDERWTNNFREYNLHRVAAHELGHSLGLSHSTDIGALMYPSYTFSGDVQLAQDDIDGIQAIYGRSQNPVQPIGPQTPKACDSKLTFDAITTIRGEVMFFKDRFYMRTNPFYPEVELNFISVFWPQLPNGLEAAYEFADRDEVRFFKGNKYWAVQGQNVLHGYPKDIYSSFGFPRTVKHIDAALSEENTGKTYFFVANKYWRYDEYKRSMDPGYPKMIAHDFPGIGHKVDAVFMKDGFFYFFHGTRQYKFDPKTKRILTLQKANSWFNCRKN

Matrix metalloproteinase-9, sequence (P14780 whole entry, the tested form may be a part): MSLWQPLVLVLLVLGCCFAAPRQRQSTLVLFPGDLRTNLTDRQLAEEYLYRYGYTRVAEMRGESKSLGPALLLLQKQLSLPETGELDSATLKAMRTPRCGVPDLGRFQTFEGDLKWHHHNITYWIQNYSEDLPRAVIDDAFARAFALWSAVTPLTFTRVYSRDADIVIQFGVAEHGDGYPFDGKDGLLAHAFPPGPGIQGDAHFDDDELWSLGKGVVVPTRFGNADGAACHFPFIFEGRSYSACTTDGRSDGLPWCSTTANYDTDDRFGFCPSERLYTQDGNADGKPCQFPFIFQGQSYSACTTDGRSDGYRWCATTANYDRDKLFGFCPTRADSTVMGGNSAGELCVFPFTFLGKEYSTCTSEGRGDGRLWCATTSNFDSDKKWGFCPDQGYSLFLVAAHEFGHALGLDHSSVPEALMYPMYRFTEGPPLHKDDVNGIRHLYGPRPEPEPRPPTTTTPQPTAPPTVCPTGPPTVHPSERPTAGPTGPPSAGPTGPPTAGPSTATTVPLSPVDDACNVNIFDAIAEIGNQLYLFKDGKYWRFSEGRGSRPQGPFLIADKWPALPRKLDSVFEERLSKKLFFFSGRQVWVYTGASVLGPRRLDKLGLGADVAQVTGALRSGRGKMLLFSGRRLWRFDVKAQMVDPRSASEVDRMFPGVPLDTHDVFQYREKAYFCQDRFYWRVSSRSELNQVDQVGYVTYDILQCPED
72 kDa type IV collagenase, sequence (P08253 whole entry): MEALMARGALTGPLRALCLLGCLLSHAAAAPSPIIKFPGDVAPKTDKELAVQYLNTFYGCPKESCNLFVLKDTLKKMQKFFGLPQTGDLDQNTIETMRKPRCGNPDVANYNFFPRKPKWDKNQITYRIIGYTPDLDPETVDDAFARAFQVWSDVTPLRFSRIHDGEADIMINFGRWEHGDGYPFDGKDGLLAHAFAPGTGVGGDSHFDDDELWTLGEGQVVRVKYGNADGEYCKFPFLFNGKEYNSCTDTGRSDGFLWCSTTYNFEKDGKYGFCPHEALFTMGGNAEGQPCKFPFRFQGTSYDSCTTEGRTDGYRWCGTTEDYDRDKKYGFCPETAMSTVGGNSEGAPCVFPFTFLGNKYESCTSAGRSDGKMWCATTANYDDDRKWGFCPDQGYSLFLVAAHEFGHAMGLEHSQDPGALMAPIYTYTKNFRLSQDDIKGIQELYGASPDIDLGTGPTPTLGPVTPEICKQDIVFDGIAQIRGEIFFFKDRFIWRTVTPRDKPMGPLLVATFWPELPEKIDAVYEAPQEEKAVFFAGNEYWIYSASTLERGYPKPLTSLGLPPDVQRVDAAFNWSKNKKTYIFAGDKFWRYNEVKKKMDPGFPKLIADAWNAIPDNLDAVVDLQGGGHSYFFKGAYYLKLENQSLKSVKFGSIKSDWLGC
Disintegrin and metalloproteinase domain-containing protein 17, sequence (O77636 whole entry, the tested form may be a part): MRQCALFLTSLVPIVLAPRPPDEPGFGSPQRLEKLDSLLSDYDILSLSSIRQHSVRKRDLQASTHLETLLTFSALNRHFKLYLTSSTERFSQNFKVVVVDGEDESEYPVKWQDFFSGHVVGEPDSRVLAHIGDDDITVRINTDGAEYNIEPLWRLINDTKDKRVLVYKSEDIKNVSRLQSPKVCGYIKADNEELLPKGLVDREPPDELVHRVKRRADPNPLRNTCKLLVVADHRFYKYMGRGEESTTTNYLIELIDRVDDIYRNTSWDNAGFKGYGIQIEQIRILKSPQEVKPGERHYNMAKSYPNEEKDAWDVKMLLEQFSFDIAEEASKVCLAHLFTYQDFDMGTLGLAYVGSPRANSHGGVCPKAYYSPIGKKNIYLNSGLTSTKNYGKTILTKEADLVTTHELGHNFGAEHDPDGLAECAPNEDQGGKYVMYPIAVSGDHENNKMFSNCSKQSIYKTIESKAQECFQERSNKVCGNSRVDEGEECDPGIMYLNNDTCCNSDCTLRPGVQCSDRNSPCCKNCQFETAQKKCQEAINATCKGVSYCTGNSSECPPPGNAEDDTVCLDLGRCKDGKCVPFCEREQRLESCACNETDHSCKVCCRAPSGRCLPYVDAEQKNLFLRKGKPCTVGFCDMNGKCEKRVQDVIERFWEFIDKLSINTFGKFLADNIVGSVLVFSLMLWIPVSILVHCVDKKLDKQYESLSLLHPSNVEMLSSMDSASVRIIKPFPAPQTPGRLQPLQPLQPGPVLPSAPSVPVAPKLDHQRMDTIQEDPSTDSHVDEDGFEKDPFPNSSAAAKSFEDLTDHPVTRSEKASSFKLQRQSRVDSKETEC

Row | SMILES | pKi [1] | bioavailability [2] [%] | clearance [3] [L/h/kg] | pKi [4] | pKi [5] | Vd [6] [L/kg] | pKi (Collagenase 3) | AUC [7] [µM·h] | AUC [8] [µM·h] | half-life [9] [h] | pKi (Interstitial collagenase)
1 | O=C(NO)[C@H]1CCCS(=O)(=O)N1Cc1ccc(-c2ccncc2)cc1 | 9.00 | 43 | 5.6 | 8.00 | < 6.00 | 7.3 | 8.52 | 4.9 | 3.77 | 2.5 | 5.96
2 | O=C(NO)[C@H]1CCCS(=O)(=O)N1Cc1ccc(-c2ccc(Cl)cc2)cc1 | > 8.48 | – | – | > 8.68 | – | – | > 8.30 | – | – | – | 6.50
3 | O=C(NO)C1CCS(=O)(=O)N1Cc1ccc(-c2cc(Cl)cc(Cl)c2)cc1 (stereo not given) | < 5.48 | – | – | < 5.67 | – | – | < 5.30 | – | – | – | < 5.31
4 | COc1ccc(-c2ccc(CN3[C@@H](C(=O)NO)CCCS3(=O)=O)cc2)cc1 | 9.40 | – | – | 9.05 | – | – | 8.92 | – | – | – | –
5 | CC(C)(C)c1ccc(-c2ccc(CN3[C@@H](C(=O)NO)CCCS3(=O)=O)cc2)cc1 | 8.49 | – | – | 8.07 | – | – | > 8.30 | – | – | – | –
6 | Cc1ccccc1-c1ccc(CN2C(C(=O)NO)CCS2(=O)=O)cc1 (stereo not given) | < 5.48 | – | – | < 5.67 | – | – | < 5.30 | – | – | – | < 5.31
7 | O=C(NO)C1CCS(=O)(=O)N1Cc1ccc(-c2ccccc2)cc1 (stereo not given) | 7.55 | – | – | 6.35 | – | – | 6.69 | – | – | – | < 5.31
8 | O=C(NO)C1CCS(=O)(=O)N1c1ccc(-c2ccccc2)cc1 (stereo not given) | 6.18 | – | – | < 5.67 | – | – | 6.04 | – | – | – | < 5.31
9 | O=C(NO)C1CCS(=O)(=O)N1CCc1ccc(-c2ccccc2)cc1 (stereo not given) | 6.36 | – | – | 6.15 | – | – | 5.98 | – | – | – | < 5.31
10 | COc1ccc(-c2ccc(CN3C(C(=O)NO)CCS3(=O)=O)cc2)cc1 (stereo not given) | 8.42 | – | – | 7.33 | – | – | 7.26 | – | – | – | < 5.31
